The values that follow come from patent US20160002204A1 (Board of Regents, The University of Texas System, priority 2014, published 2016).

For test [1], the target named is T1, GLS1 (purified recombinant human GAC) (Homo sapiens, UniProt O94925).
T1 sequence (O94925 55-598 isoform O94925-3 limits assumed): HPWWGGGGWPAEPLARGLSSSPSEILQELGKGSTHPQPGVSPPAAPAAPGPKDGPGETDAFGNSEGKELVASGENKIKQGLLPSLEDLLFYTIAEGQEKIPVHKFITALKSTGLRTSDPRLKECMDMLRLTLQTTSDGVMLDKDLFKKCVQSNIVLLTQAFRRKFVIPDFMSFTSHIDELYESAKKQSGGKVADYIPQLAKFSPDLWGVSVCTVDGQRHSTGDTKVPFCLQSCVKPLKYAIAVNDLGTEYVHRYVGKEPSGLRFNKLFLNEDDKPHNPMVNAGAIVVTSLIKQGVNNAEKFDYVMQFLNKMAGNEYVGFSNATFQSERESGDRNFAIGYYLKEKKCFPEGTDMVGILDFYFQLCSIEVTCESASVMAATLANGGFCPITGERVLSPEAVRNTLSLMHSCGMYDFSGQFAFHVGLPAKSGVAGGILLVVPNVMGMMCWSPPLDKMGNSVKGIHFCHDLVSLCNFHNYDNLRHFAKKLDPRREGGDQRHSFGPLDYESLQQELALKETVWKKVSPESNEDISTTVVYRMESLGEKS
As to the kind of experiment: GLS1 enzymatic activity assay (dual-coupled, Amplex UltraRed/resorufin). Format: biochemical. Summed up: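 Recombinant human GAC (2 nM) preincubated with 50 mM potassium phosphate, then inhibitor (10 min each, RT); 1 mM glutamine, pH 7.4 Hepes buffer, 1% DMSO. Glutamate coupled via glutamate oxidase/HRP to resorufin (Ex 530/Em 590), kinetic or 20-min endpoint; IC50 by four-parameter logistic fit.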

Test [2] concerns A549 cells. As to the kind of experiment: A549 proliferation (viability) assay, Cell Titer Fluor, 72 hours. It counts as cell-based. To be noted: Homo sapiens. The essentials: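 A549 cells seeded at 1000 cells/well, left 24 h, then exposed to compound for 72 h at 37 °C, 5% CO2, final DMSO 0.5% (v/v). Viability read by Cell Titer Fluor fluorescence; EC50 from four-parameter logistic fit.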

For the molecule `O=C(Nc1ccn(CCC(F)Cn2cc(C(=O)NCc3cncc(C(F)(F)F)c3)nn2)c(=O)c1F)OC1CCC1` (stereo not shown) [Example 398, cyclobutyl N-(3-fluoro-1-{3-fluoro-4-[4-({[5-(trifluoromethyl)pyridin-3-yl]methyl}carbamoyl)-1H-1,2,3-triazol-1-yl]butyl}-2-oxo-1,2-dihydropyridin-4-yl)carbamate], the IC50 in test [1] was less than 100 nM. For the same molecule, the EC50 in test [2] is less than 100 nM.

On to `O=C(Nc1ccn(CCC(F)Cn2cc(C(=O)NCc3ccc(C(F)(F)F)nc3)nn2)c(=O)c1F)OC1CCC1` (stereo not shown) [Example 399, cyclobutyl N-(3-fluoro-1-{3-fluoro-4-[4-({[6-(trifluoromethyl)pyridin-3-yl]methyl}carbamoyl)-1H-1,2,3-triazol-1-yl]butyl}-2-oxo-1,2-dihydropyridin-4-yl)carbamate], for which, in test [1], the IC50 was 100 to 500 nM. This molecule showed an EC50 in test [2] of 100 to 500 nM.

`O=C(CC1CCCC1)Nc1ccn(CCC(F)Cn2cc(C(=O)NCc3ccc(OC(F)(F)F)cn3)nn2)c(=O)c1F` (stereo not shown) [Example 400, 1-{4-[4-(2-cyclopentylacetamido)-3-fluoro-2-oxo-1,2-dihydropyridin-1-yl]-2-fluorobutyl}-N-{[5-(trifluoromethoxy)pyridin-2-yl]methyl}-1H-1,2,3-triazole-4-carboxamide]: the IC50 in test [1] is less than 100 nM. The EC50 in test [2] was less than 100 nM.

As to `O=C(CC1CCC1)Nc1cnn(CCC(F)Cn2cc(C(=O)NCc3cc(C(F)(F)F)ccn3)nn2)c(=O)c1` (stereo not shown) [Example 401, 1-{4-[4-(2-cyclobutylacetamido)-6-oxo-1,6-dihydropyridazin-1-yl]-2-fluorobutyl}-N-{[4-(trifluoromethyl)pyridin-2-yl]methyl}-1H-1,2,3-triazole-4-carboxamide], the 50% inhibitory concentration (IC50) in test [1] was less than 100 nM. In test [2], this molecule registered an EC50 of 100 to 500 nM.

As to `Cc1ccc(CNC(=O)c2cn(CC(F)CCn3ncc(NC(=O)CC4CCC4)cc3=O)nn2)cn1` (stereo not shown) [Example 402, 1-{4-[4-(2-cyclobutylacetamido)-6-oxo-1,6-dihydropyridazin-1-yl]-2-fluorobutyl}-N-[(6-methylpyridin-3-yl)methyl]-1H-1,2,3-triazole-4-carboxamide], the IC50 in test [1] was 100 to 500 nM. The molecule further yielded an EC50 in test [2] of 500 to 5000 nM.

`CNC(=O)c1cn(CC(F)CCn2ccc(NC(=O)CN3CCN(C(=O)OC(C)(C)C)CC3)cc2=O)nn1` (stereo not shown) [Example 403, tert-butyl 4-{[(1-{3-fluoro-4-[4-(methylcarbamoyl)-1H-1,2,3-triazol-1-yl]butyl}-2-oxo-1,2-dihydropyridin-4-yl)carbamoyl]methyl}piperazine-1-carboxylate]: the IC50 in test [1] lay in the range of 100 to 500 nM. The EC50 in test [2] is 500 to 5000 nM.

For the molecule `CC(C)CNC(=O)c1cn(CC(F)CCn2ccc(NC(=O)CN3CCN(C(=O)OC(C)(C)C)CC3)cc2=O)nn1` (stereo not shown) [Example 404, tert-butyl 4-({[1-(3-fluoro-4-{4-[(2-methylpropyl)carbamoyl]-lH-1,2,3-triazol-1-yl}butyl)-2-oxo-1,2-dihydropyridin-4-yl]carbamoyl}methyl)piperazine-1-carboxylate], the IC50 in test [1] lay in the range of 100 to 500 nM. The molecule further gave an EC50 in test [2] of 500 to 5000 nM.

Take `CC(C)(C)OC(=O)N1CCN(CC(=O)Nc2ccn(CCC(F)Cn3cc(C(=O)NCC4CCCC4)nn3)c(=O)c2)CC1` (stereo not shown) [Example 405, tert-butyl 4-({[1-(4-{4-[(cyclopentylmethyl)carbamoyl]-1H-1,2,3-triazol-1-yl}-3-fluorobutyl)-2-oxo-1,2-dihydropyridin-4-yl]carbamoyl}methyl)piperazine-1-carboxylate]: the IC50 in test [1] was 100 to 500 nM. Also, the EC50 in test [2] fell in the range of 100 to 500 nM.

As for `CC(C)(CO)CNC(=O)c1cn(CC(F)CCn2ccc(NC(=O)CN3CCN(C(=O)OC(C)(C)C)CC3)cc2=O)nn1` (stereo not shown) [Example 406, tert-butyl 4-({[1-(3-fluoro-4-{4-[(3-hydroxy-2,2-dimethylpropyl)carbamoyl]-1H-1,2,3-triazol-1-yl}butyl)-2-oxo-1,2-dihydropyridin-4-yl]carbamoyl}methyl)piperazine-1-carboxylate], the IC50 in test [1] was in the range of 500 to 5000 nM. Further, the EC50 in test [2] is more than 5000 nM.

Turning to `CC(C)(C)OC(=O)N1CCN(CC(=O)Nc2ccn(CCC(F)Cn3cc(C(N)=O)nn3)c(=O)c2)CC1` (stereo not shown) [Example 407, tert-butyl 4-[({1-[4-(4-carbamoyl-1H-1,2,3-triazol-1-yl)-3-fluorobutyl]-2-oxo-1,2-dihydropyridin-4-yl}carbamoyl)methyl]piperazine-1-carboxylate], in test [1], the IC50 is 500 to 5000 nM. In test [2], this molecule displayed an EC50 of more than 5000 nM.

`CC(C)(C)OC(=O)c1cn(CC(F)CCn2ccc(CO)cc2=O)nn1` (stereo not shown) [Example 408, tert-butyl 1-{2-fluoro-4-[4-(hydroxymethyl)-2-oxo-1,2-dihydropyridin-1-yl]butyl}-1H-1,2,3-triazole-4-carboxylate]: the IC50 in test [1] is more than 5000 nM. In test [2], this molecule had an EC50 of more than 5000 nM.

Regarding `O=C(Cc1ccccc1)Nc1ccn(CCC(F)Cn2cc(C(=O)NCc3ccc(OC(F)(F)F)cn3)nn2)c(=O)c1F` (stereo not shown) [Example 409, 1-{2-fluoro-4-[3-fluoro-2-oxo-4-(2-phenylacetamido)-1,2-dihydropyridin-1-yl]butyl}-N-{[5-(trifluoromethoxy)pyridin-2-yl]methyl}-1H-1,2,3-triazole-4-carboxamide], the half-inhibitory concentration (IC50) in test [1] was less than 100 nM. In test [2], the EC50 was less than 100 nM.

Turning to `O=C(Nc1ccn(CCC(F)Cn2cc(C(=O)NCc3cc(C(F)(F)F)ccn3)nn2)c(=O)n1)OC1CCC1` (stereo not shown) [Example 410, cyclobutyl N-(1-{3-fluoro-4-[4-({[4-(trifluoromethyl)pyridin-2-yl]methyl}carbamoyl)-1H-1,2,3-triazol-1-yl]butyl}-2-oxo-1,2-dihydropyrimidin-4-yl)carbamate], the IC50 in test [1] fell in the range of 100 to 500 nM. The molecule also returned a 50% effective concentration (EC50) in test [2] of 500 to 5000 nM.

As for `Cc1ccc(CNC(=O)c2cn(CC(F)CCn3ccc(NC(=O)C(=O)N4CCCC4)c(F)c3=O)nn2)cn1` (stereo not shown) [Example 411, 1-(2-fluoro-4-{3-fluoro-2-oxo-4-[2-oxo-2-(pyrrolidin-1-yl)acetamido]-1,2-dihydropyridin-1-yl}butyl)-N-[(6-methylpyridin-3-yl)methyl]-1H-1,2,3-triazole-4-carboxamide], the IC50 in test [1] was 500 to 5000 nM. This molecule also had an EC50 in test [2] of 500 to 5000 nM.

For the molecule `Cc1ccc(CNC(=O)c2cn(CC(F)CCn3ccc(NC(=O)C(=O)N4CCCCC4)c(F)c3=O)nn2)cn1` (stereo not shown) [Example 412, 1-(2-fluoro-4-{3-fluoro-2-oxo-4-[2-oxo-2-(piperidin-1-yl)acetamido]-1,2-dihydropyridin-1-yl}butyl)-N-[(6-methylpyridin-3-yl)methyl]-1H-1,2,3-triazole-4-carboxamide], the IC50 in test [1] lay in the range of 100 to 500 nM. The EC50 in test [2] was in the range of 500 to 5000 nM.

For the molecule `Cc1ccc(CNC(=O)c2cn(CC(F)CCn3ccc(NC(=O)OC4CCC4)nc3=O)nn2)cn1` (stereo not shown) [Example 413, cyclobutyl N-{1-[3-fluoro-4-(4-{[(6-methylpyridin-3-yl)methyl]carbamoyl}-1H-1,2,3-triazol-1-yl)butyl]-2-oxo-1,2-dihydropyrimidin-4-yl}carbamate], in test [1], the IC50 lay in the range of 100 to 500 nM. In addition, the EC50 in test [2] lay within 500 to 5000 nM.

As for `O=C(NCc1cccc(OC(F)(F)F)c1)c1cn(CC(F)CCn2ccc(COc3ccccc3)cc2=O)nn1` (stereo not shown) [Example 414, 1-(2-fluoro-4-(2-oxo-4-(phenoxymethyl)pyridin-1(2H)-yl)butyl)-N-(3-(trifluoromethoxy)benzyl)-1H-1,2,3-triazole-4-carboxamide], in test [1], the IC50 is less than 100 nM. Further, the EC50 in test [2] was in the range of 500 to 5000 nM.

In the case of `O=C(CN1CC2CC(C2)C1)Nc1ccn(CCC(F)Cn2cc(C(=O)NCc3cc(C(F)(F)F)ccn3)nn2)c(=O)c1F` (stereo not shown) [Example 415, 1-{4-[4-(2-{3-azabicyclo[3.1.1]heptan-3-yl}acetamido)-3-fluoro-2-oxo-1,2-dihydropyridin-1-yl]-2-fluorobutyl}-N-{[4-(trifluoromethyl)pyridin-2-yl]methyl}-1H-1,2,3-triazole-4-carboxamide], the IC50 in test [1] was less than 100 nM. The molecule also gave an EC50 in test [2] of less than 100 nM.

`O=C(CN1CCC(F)(F)CC1)Nc1ccn(CCC(F)Cn2cc(C(=O)NCc3cc(C(F)(F)F)ccn3)nn2)c(=O)c1F` (stereo not shown) [Example 416, 1-(4-{4-[2-(4,4-difluoropiperidin-1-yl)acetamido]-3-fluoro-2-oxo-1,2-dihydropyridin-1-yl}-2-fluorobutyl)-N-{[4-(trifluoromethyl)pyridin-2-yl]methyl}-1H-1,2,3-triazole-4-carboxamide]: the IC50 in test [1] is less than 100 nM. The molecule further had an EC50 in test [2] of less than 100 nM.

Consider `O=C(Nc1ccn(CCC(F)Cn2cc(C(=O)NCc3cccc(OC(F)(F)F)c3)nn2)c(=O)c1F)C(=O)N1CCOCC1` (stereo not shown) [Example 417, 1-(2-fluoro-4-{3-fluoro-4-[2-(morpholin-4-yl)-2-oxoacetamido]-2-oxo-1,2-dihydropyridin-1-yl}butyl)-N-{[3-(trifluoromethoxy)phenyl]methyl}-1H-1,2,3-triazole-4-carboxamide], for which the IC50 in test [1] was 100 to 500 nM. The EC50 in test [2] was in the range of 500 to 5000 nM.
